# Experiments:
# [1] = biological target: T1, Syn19 PstS (group II cyanophage PstS) (Synechococcus phage Syn19, UniProt E3SQC4); type: binding; settings: crystallised with 5 mM sodium phosphate, pH 7.5; 18% PEG 3350, 0.2 M sodium formate
# T1 construct: recombinant, E. coli BL21(DE3), pET-22b, C-terminal His6 tag
# [2] = biological target: T2, host PstS (Prochlorococcus NATL2A PstS) (Prochlorococcus marinus, UniProt Q46KP5); settings: 20 mM Tris-HCl, 200 mM NaCl, pH 7.5, room temperature, 24 h; trace 32P tracer with cold NaH2PO4
# T2 construct: gene PMN2A_0441
# T2 sequence (Q46KP5 25-323): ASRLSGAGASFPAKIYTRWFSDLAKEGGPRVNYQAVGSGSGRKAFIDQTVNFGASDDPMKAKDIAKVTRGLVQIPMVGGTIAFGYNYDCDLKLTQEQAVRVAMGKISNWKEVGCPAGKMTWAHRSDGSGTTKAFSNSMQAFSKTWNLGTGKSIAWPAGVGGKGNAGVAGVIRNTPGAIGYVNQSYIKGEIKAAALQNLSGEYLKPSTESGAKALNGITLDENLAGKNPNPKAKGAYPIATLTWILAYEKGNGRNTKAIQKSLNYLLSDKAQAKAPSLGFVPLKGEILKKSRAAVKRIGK
# [3] = biological target: phage PstS (cyanophage P-SSM2 PstS) (Prochlorococcus phage P-SSM2, UniProt Q58MA7); experiment: biochemical
# Chain of phage PstS (cyanophage P-SSM2 PstS) (Q58MA7 21-321): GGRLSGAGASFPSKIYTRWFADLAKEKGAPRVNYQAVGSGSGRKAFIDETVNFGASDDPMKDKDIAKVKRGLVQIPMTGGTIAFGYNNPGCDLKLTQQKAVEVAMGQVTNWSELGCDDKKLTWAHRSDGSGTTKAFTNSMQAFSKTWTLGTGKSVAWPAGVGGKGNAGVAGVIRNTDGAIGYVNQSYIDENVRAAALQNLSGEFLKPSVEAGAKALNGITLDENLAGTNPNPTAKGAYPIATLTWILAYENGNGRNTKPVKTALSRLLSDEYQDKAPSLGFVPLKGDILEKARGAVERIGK
# T1 sequence (E3SQC4 19-326): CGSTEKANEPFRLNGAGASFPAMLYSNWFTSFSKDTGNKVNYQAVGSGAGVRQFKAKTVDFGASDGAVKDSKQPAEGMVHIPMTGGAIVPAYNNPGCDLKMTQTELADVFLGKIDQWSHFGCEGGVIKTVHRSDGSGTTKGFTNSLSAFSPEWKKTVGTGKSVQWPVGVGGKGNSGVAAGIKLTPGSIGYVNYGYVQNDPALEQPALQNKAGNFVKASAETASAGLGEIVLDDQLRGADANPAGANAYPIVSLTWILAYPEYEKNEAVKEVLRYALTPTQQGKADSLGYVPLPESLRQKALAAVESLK
compound,measurement,setting,value
O=P(O)(O)O [phosphate],"X-ray crystal structure, 1.70 Å",[1],The PstS structure of cyanophage Syn19 in complex with PO4.
same,Kd,[2],820 ± 440 nM
same,Kd,[3],1390 ± 220 nM

# From paper doi:10.1101/2021.07.20.453049v1, “Integration of the cyanophage-encoded phosphate binding protein into the cyanobacterial phosphate uptake system” (biorxiv, 2021)
